The structures appear in SMILES notation. “Also recorded” adds a separate entry of the source.

The text below walks through data of patent US11226337B2, “Chemoproteomic profiling of protein electrophilic and oxidative post-translational modifications” (Zenagem, LLC, priority 2017, dated 2022).

The target in one assay is T1, AMD1 (Homo sapiens, UniProt P17707).
T1 construct: made in house; host or cells: E. coli (intact cells treated with probe)
Briefly: probe labelling of E. coli cells expressing the protein. Type of assay: cell-based. The conditions noted are these: probe 1 3 mM or probe 2 1 mM, 37° C., 0.5 hour. As to the method:
Induced overnight cultures expressing each protein were resuspended in serum-free DMEM supplemented with 10 mM Na-HEPES buffer (pH 7.5) such that the final OD600 was ˜10. The probes were added to the cells (3 and 1 mM, respectively, for 1 and 2) and incubated at 37° C. for 0.5 hour. Note that these are the same conditions used for treatment of mammalian cells. The cells were pelleted (16,000 g, 3 min, 4° C.), washed with PBS (2×1 mL), and resuspended in HEPES buffer or PBS maintaining the same initial volume. Cells were lysed by sonication, debris was pelleted, soluble protein was diluted to 0.5 mg/mL with PBS and probe-labelled proteins were conjugated to rhodamine-azide and visualized as described above in Example 2.

For a further assay, the target named is T2, AMD1 pyruvoyl cofactor (Homo sapiens, UniProt P17707).
T2 construct: made in house; host or cells: E. coli (vector pQE30)
T2 sequence (P17707 68-334 limits assumed): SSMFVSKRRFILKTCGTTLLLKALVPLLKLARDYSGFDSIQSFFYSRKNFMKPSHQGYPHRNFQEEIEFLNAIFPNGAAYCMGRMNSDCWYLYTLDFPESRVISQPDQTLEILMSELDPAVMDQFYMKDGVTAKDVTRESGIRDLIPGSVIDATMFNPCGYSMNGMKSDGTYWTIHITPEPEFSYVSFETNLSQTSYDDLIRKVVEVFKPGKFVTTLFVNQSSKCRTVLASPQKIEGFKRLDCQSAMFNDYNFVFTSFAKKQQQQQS
T2 sequence (P17707 1-67 partner limits assumed): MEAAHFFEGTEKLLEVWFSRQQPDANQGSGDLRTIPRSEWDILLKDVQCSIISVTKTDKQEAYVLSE
Description: in vitro labelling of purified reconstituted AMD1, LC-MS/MS. Type of assay: binding. The note with it: 50 μM AMD1, 3 mM probe 1, overnight. As to the method:
Full-length AMD1 having an additional 12 amino acids (MRGSH6GS) (SEQ ID NO: 46) appended to the N-terminal methionine residue was expressed from the bacterial vector pQE30. The appendage contains a His6 element (SEQ ID NO: 69) to permit purification of the protein by metal ion affinity chromatography on Ni-NTA agarose (Qiagen). E. coli cell cultures were grown at 37° C. in rich LB broth (35 g/L tryptone, 20 g/L yeast extract, 5 g/L NaCl, and 0.05 g/L kanamycin (pH 7.0)) to an optical density at 600 nm of 0.6-0.8. The flasks were cooled rapidly by incubation on ice for 30 minutes prior to addition of IPTG (1 mM). Following induction, cultures were grown at 15-18° C. for an additional 16-20 hours and cells were harvested by centrifugation (8,000 g, 30 min, 4° C.). The cell paste was flash-frozen in liquid N2 and stored at −80° C. A typical yield was 8-10 g of wet cell paste per liter of culture. […]
A 100 μL solution of 50 μM purified reconstituted AMD1 in PBS was incubated overnight at ambient temperature in the presence or absence of 3 mM probe 1 (pH 7). […] Peptides were eluted from the column using a 180 minute gradient from 0% to 50% Buffer B (Buffer A: 5% acetonitrile, 95% H2O, 0.1% formic acid; Buffer B: 80% acetonitrile, 20% H2O, 0.1% formic acid) and analyzed on an LTQ-Orbitrap Finnigan mass spectrometer (Thermo Scientific). […]

T1 sequence (P17707 68-334): as the sequence (P17707 68-334 limits assumed) above
T1 sequence (P17707 2-67): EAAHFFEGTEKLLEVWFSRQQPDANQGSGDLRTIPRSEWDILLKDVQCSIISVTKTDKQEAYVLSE

Take `C#CCNN.Cl` [probe 1, prop-2-yn-1-ylhydrazine hydrochloride]: the “probe labelling of protein expressed in E. coli” value at AMD1 is reported as “reacts well”. Besides, at AMD1 pyruvoyl cofactor, the “site specificity of the reaction” value is “reacted specifically with the N-terminal pyruvoyl group”. Further, the “extent of reaction with the pyruvoyl group” value on AMD1 pyruvoyl cofactor (ambient temperature, hydrochloride) is “the reaction with probe 1 was complete; also recorded: proceeded to near-completion”.

`C#CCCNC(=O)c1ccc(NN)cc1.Cl` [probe 2, N-(but-3-yn-1-yl)-4-hydrazinylbenzamide hydrochloride]: the “probe labelling of protein expressed in E. coli” value at AMD1 was “reacts well”.
